# Measured values published in the Deep4Chem optical property database.
# Test: solvent given as SMILES
smiles,measurement,setting,value
Cc1cc(=O)oc2c1cc(Br)c1occ(C)c12,absorption maximum,in C1CCCCC1,333 nm
same,absorption maximum,in CCO,330 nm
CN(C)c1ccc(-c2cc(-c3ccc(C#N)cc3)nc(-c3ccccc3)n2)cc1,absorption maximum,in ClC(Cl)Cl,376 nm
CC1(C)c2ccccc2N(c2c(F)cc(-c3nnc(-c4ccccc4)o3)cc2F)c2ccccc21,absorption maximum,in Cc1ccccc1,376 nm
same,absorption maximum,in O=P(c1ccccc1)(c1ccccc1)c1ccccc1Oc1ccccc1P(=O)(c1ccccc1)c1ccccc1,370 nm
Cc1ccc(C2=C3C=CC(Cl)=[N+]3[B-](F)(F)n3c(Cl)ccc32)cc1,absorption maximum,in C1CCCCC1,514 nm
same,absorption maximum,in C1CCOC1,511 nm
same,absorption maximum,in CC#N,508 nm
same,absorption maximum,in CCOC(C)=O,509 nm
same,absorption maximum,in CO,508 nm
same,absorption maximum,in Cc1ccccc1,516 nm
same,absorption maximum,in ClC(Cl)Cl,515 nm
CC1=[N+]2C(=C(Oc3cc(C)c4c(c3)CC[C@@](C)(CCC[C@H](C)CCC[C@H](C)CCCC(C)C)O4)c3ccc(C)n3[B-]2(F)F)C=C1c1cc2n(c1)[B-](F)(F)[N+]1=CC=CC1=C2c1c(C)cc(C)cc1C,absorption maximum,in C1CCCCC1,570.5 nm
same,absorption maximum,in CCOC(C)=O,575 nm
COc1cc2cc(C#Cc3ccc(/C=C(\C#N)C(=O)O)cc3)c(=O)oc2cc1OC,absorption maximum,in CC#N,398 nm
CCCCCOc1cc2oc(=O)c3c4ccc(N(c5ccc(C)cc5)c5ccc(C)cc5)cc4c4ccc5cccc6c(c1)c2c3c4c56,absorption maximum,in C1CCOC1,487 nm
CC(C)[Si](C#Cc1ccc(C#C[Si](C(C)C)(C(C)C)C(C)C)c2nc3c(ccc4ccccc43)nc12)(C(C)C)C(C)C,absorption maximum,in CCCCCC,411 nm
N#Cc1ccc(/C=C2\C=C(c3ccccc3)OC2=O)cc1,absorption maximum,in C1COCCO1,400 nm
COc1ccc2c(C#N)cc3ccc4cc(C#N)c5ccc(OC)cc5c4c3c2c1,absorption maximum,in ClC(Cl)Cl,422 nm
CN(C)c1ccc2cc3c(cc2c1)OCCN=C3,absorption maximum,in C1CCOC1,353 nm
same,absorption maximum,in CC#N,456 nm
same,absorption maximum,in CC(C)O,362 nm
same,absorption maximum,in CCOC(C)=O,354 nm
same,absorption maximum,in CN(C)C=O,362 nm
same,absorption maximum,in CS(C)=O,359 nm
same,absorption maximum,in Cc1ccccc1,355 nm
same,absorption maximum,in ClCCl,450 nm
same,absorption maximum,in O,451 nm
F[B-]1(F)n2c(nc3c4ccccc4c4ccccc4c32)-c2cccc[n+]21,absorption maximum,in CC#N,403 nm
same,absorption maximum,in CCCCCC,447 nm
same,absorption maximum,in CO,404 nm
same,absorption maximum,in ClC(Cl)Cl,430 nm
same,absorption maximum,in ClCCl,421 nm
CCn1c2ccccc2sc2c(C#N)c3[nH]c4ccccc4sc3c(C#N)c21,absorption maximum,in ClC(Cl)Cl,495 nm
c1ccc2c(c1)ccc1ccc3ccc4ccc5ccccc5c4c3c12,absorption maximum,in ClCCl,435 nm
Cc1cc2ccsc2c2[nH]c3ccccc3c12,absorption maximum,in ClCCl,310 nm
CC(=O)[B-]1(C(C)=O)OC(C)=CC(c2ccc3ccccc3c2)=[O+]1,absorption maximum,in CC#N,380 nm
same,absorption maximum,in ClC(Cl)(Cl)Cl,380 nm
COc1ccc2c3cccc4c(OC)ccc(c5cccc1c52)c43,absorption maximum,in C1CCOC1,458 nm
same,absorption maximum,in Cc1ccccc1,459 nm
same,absorption maximum,in ClC(Cl)(Cl)Cl,460 nm
same,absorption maximum,in ClC(Cl)Cl,459 nm
same,absorption maximum,in ClCCl,459 nm
same,absorption maximum,in c1ccncc1,463 nm
O=c1c2cc(I)ccc2nc2n1[B-](F)(F)[n+]1ccccc1-2,absorption maximum,in CC#N,345 nm
same,absorption maximum,in ClCCl,362 nm
CC(C)(C)c1ccc2c(c1)c1cc3c4cc(C(C)(C)C)ccc4c4c5c6ccc(C(C)(C)C)cc6c6cc7c8cc(C(C)(C)C)ccc8c8c2c1c(c34)c(c78)c65,absorption maximum,in CCCCCC,542.15 nm
same,absorption maximum,in CCOCC,541.57 nm
same,absorption maximum,in Cc1ccccc1,545.85 nm
N#Cc1ccc(N)c2nonc12,absorption maximum,in C1COCCO1,418 nm
same,absorption maximum,in CC#N,421 nm
same,absorption maximum,in CCCCCC,397 nm
same,absorption maximum,in CCO,430 nm
same,absorption maximum,in Cc1ccccc1,409 nm
same,absorption maximum,in ClCCl,407 nm
same,absorption maximum,in O,430 nm
C#CCn1c2ccccc2c2cc(/C=C/c3cc(C)c4n3[B-](F)(F)[N+]3=C(C)C=C(C)C3=C4c3ccc(I)cc3)ccc21,absorption maximum,in CC#N,579 nm
same,absorption maximum,in CS(C)=O,589 nm
same,absorption maximum,in ClC(Cl)Cl,588 nm
CCCC1(CCC)c2cc(-c3ccccc3)ccc2-c2ccc(-c3ccc4c(c3)C(CCC)(CCC)c3cc(-c5ccccc5)ccc3-4)cc21,absorption maximum,in C1CCCCC1,346 nm
CCN1c2ccc(-c3cc(-c4ccccc4)[nH]n3)cc2Sc2cc(-c3cc(-c4ccccc4)[nH]n3)ccc21,absorption maximum,in C1CCOC1,338 nm
same,absorption maximum,in CC#N,338 nm
same,absorption maximum,in CN(C)C=O,336 nm
same,absorption maximum,in ClCCl,336 nm
same,absorption maximum,in c1ccccc1,338 nm
CCCCCn1c2ccccc2c(=O)c2ccccc21,absorption maximum,in CS(C)=O,403 nm
same,absorption maximum,in O,394 nm
COc1ccc(-c2c3ccccc3c(-c3ccc(OC)cc3)c3cc4ccccc4cc23)cc1,absorption maximum,in ClCCl,495 nm
c1ccc(N(c2ccccc2)c2ccc(-c3ccc4c(c3)C3(c5cc(-c6ccc(N(c7ccccc7)c7ccccc7)cc6)ccc5O4)c4ccccc4-c4ccccc43)cc2)cc1,absorption maximum,in ClCCl,345 nm
